Results taken from ChEMBL document CHEMBL4680147, “Discovery of 6'-chloro-N-methyl-5'-(phenylsulfonamido)-[3,3'-bipyridine]-5-carboxamide (CHMFL-PI4K-127) as a novel Plasmodium falciparum PI(4)K inhibitor with potent antimalarial activity against both blood and liver stages of Plasmodium” (Eur J Med Chem, 2020).
Calls of active or inactive are those of the source. No cut-off for these calls is given here.

How the values were obtained:
[1] = Cmax in Sprague-Dawley rat at 10 mg/kg, po; assay type: ADME, organism-based; design: route oral, dose 10 mg/kg; conditions: in vivo
[2] = AUC(0 to t) in Sprague-Dawley rat at 10 mg/kg, po; assay type: ADME, organism-based; design: dose 10 mg/kg; conditions: in vivo
[3] = target: Phosphatidylinositol 3-kinase catalytic subunit type 3 (Homo sapiens, UniProt Q8NEB9); test: Inhibition of human VPS34 by ADP-Glo kinase assay
[4] = Selectivity index, ratio of IC50 for human PI4K3alpha to IC50 for recombinant His-tagged Plasmodium falciparum 3D7 PI4K expressed in baculovirus infected Sf9 cells
[5] = Selectivity index, ratio of IC50 for human PI3Kbeta to IC50 for recombinant His-tagged Plasmodium falciparum 3D7 PI4K expressed in baculovirus infected Sf9 cells
[6] = Cmax in Sprague-Dawley rat at 1 mg/kg, iv; assay type: ADME, organism-based; design: route intravenous, dose 1 mg/kg; conditions: in vivo
[7] = system: Plasmodium falciparum; test: Antimalarial activity against mefloquine/chloroquine/pyrimethamine resistant Plasmodium falciparum Dd2 infected in human O+ erythrocytes incubated for 72 hrs by SYBR Green 1 dye based fluorescence assay; assay type: functional, organism-based; conditions: Dd2, Erythrocyte
[8] = Tmax in Sprague-Dawley rat at 10 mg/kg, po; assay type: ADME, organism-based; conditions: in vivo
[9] = Apparent clearance in mouse at 10 mg/kg, po; assay type: ADME, organism-based; conditions: in vivo, read-out: CL(app) (converted)
[10] = Selectivity index, ratio of IC50 for human PI4K3beta to IC50 for recombinant His-tagged Plasmodium falciparum 3D7 PI4K expressed in baculovirus infected Sf9 cells
[11] = Cmax in mouse at 10 mg/kg, po; assay type: ADME, organism-based; design: route oral, dose 10 mg/kg; conditions: in vivo
[12] = system: Plasmodium yoelii; test: Antimalarial activity against blood stage Plasmodium yoelii infected in BALB/c mouse assessed as suppression of parasitemia administered once daily via oral gavage for 7 consecutive days starting from 1 day post-infection and observed for 20 days by Giemsa-staining based microscopic analysis; assay type: functional, organism-based; conditions: dose 60-80 mg/kg/day, time 20.0 day
[13] = Selectivity index, ratio of IC50 for human PI3Kalpha to IC50 for recombinant His-tagged Plasmodium falciparum 3D7 PI4K expressed in baculovirus infected Sf9 cells
[14] = Cmax in mouse at 1 mg/kg, iv; assay type: ADME, organism-based; design: route intravenous, dose 1 mg/kg; conditions: in vivo
[15] = Mean residence time (0 to t) in mouse at 1 mg/kg, iv; assay type: ADME, organism-based; conditions: in vivo
[16] = AUC(0 to t) in Sprague-Dawley rat at 1 mg/kg, iv; assay type: ADME, organism-based; design: dose 1 mg/kg; conditions: in vivo
[17] = target: T1, Phosphatidylinositol 4,5-bisphosphate 3-kinase catalytic subunit delta isoform (Homo sapiens, UniProt O00329); test: Inhibition of human PI3Kdelta by ADP-Glo kinase assay
T1 sequence (O00329 whole entry): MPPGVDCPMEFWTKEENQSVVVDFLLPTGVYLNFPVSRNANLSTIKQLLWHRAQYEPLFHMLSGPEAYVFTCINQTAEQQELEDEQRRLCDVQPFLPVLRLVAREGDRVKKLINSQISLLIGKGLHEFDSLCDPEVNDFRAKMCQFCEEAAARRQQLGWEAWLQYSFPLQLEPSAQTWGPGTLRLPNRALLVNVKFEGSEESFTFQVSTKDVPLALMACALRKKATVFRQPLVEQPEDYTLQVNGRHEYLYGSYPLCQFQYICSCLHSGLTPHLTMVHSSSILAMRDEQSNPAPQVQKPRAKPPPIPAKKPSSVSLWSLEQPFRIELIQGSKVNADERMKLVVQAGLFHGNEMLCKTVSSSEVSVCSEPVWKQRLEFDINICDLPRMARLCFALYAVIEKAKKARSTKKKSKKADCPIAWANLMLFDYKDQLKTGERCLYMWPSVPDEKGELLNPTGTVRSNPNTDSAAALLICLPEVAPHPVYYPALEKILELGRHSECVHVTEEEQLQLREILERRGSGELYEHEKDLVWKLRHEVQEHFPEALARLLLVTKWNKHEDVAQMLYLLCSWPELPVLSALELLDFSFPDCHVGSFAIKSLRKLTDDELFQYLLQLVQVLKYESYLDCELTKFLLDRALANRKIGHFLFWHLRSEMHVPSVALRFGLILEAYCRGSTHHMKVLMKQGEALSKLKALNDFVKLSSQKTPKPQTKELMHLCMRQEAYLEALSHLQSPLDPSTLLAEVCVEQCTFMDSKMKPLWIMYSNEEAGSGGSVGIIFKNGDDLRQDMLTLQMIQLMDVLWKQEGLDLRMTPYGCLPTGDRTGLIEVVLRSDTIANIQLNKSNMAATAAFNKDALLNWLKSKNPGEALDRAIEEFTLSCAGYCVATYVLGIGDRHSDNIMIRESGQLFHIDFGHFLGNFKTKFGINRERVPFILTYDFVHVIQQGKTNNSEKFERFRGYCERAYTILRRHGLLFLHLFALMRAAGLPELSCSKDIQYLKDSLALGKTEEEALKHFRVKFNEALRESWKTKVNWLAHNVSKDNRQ

[18] = system: Plasmodium falciparum; test: Antimalarial activity against blood stage Plasmodium falciparum harboring PI4K Y1342I mutant infected in human O+ erythrocytes incubated for 72 hrs by SYBR Green 1 dye based fluorescence assay; assay type: functional, organism-based; conditions: Erythrocyte
[19] = system: Plasmodium falciparum; test: Antimalarial activity against chloroquine resistant Plasmodium falciparum FAB9 infected in human O+ erythrocytes incubated for 72 hrs by SYBR Green 1 dye based fluorescence assay; assay type: functional, organism-based; conditions: FAB9, Erythrocyte
[20] = Selectivity index, ratio of EC50 for antimalarial activity against Plasmodium falciparum harboring PI4K Y1342I/T1360A mutant infected in human O+ erythrocytes to EC50 for antimalarial activity against Plasmodium falciparum harboring PI4K Y1342I mutant infected in human O+ erythrocytes; assay type: functional
[21] = Apparent clearance in mouse at 1 mg/kg, iv; assay type: ADME, organism-based; conditions: in vivo, read-out: CL(app) (converted)
[22] = system: Plasmodium yoelii; test: (§1) Antimalarial activity against blood stage Plasmodium yoelii infected in BALB/c mouse assessed as suppression of parasitemia at 80 mg/kg/day, po administered for 7 consecutive days starting from 1 day post-infection and observed for 20 days by Giemsa-staining based microscopic analysis; assay type: functional; conditions: time 20 day
[23] = Apparent volume of distribution in mouse at 10 mg/kg, po; assay type: ADME, organism-based; conditions: in vivo
[24] = Tmax in Sprague-Dawley rat at 1 mg/kg, iv; assay type: ADME, organism-based; conditions: in vivo
[25] = system: Plasmodium yoelii; test: as §1, with “60” for “80”, “measured after cessation of drug treatment” for “observed for 20 days”; assay type: functional, organism-based; conditions: time 7.0 day
[26] = system: Plasmodium falciparum; test: Antimalarial activity against chloroquine resistant Plasmodium falciparum D10 infected in human O+ erythrocytes incubated for 72 hrs by SYBR Green 1 dye based fluorescence assay; assay type: functional, organism-based; conditions: D10, Erythrocyte
[27] = system: Plasmodium falciparum; test: Antimalarial activity against blood stage Plasmodium falciparum harboring PI4K Y1342I/T1360A mutant infected in human O+ erythrocytes incubated for 72 hrs by SYBR Green 1 dye based fluorescence assay; assay type: functional, organism-based; conditions: Erythrocyte
[28] = Half life in Sprague-Dawley rat at 10 mg/kg, po; assay type: ADME, organism-based; conditions: in vivo
[29] = Apparent volume of distribution in Sprague-Dawley rat at 10 mg/kg, po; assay type: ADME, organism-based; conditions: in vivo
[30] = system: Plasmodium berghei; test: Antimalarial activity against liver stage luciferase-expressing Plasmodium berghei sporozoites infected in BALB/c mouse assessed as suppression of parasitemia at 1 mg/kg, po treated for 2 hrs followed by parasite infection and measured upto 196 hrs post-infection by luciferase based in vivo real-time imaging analysis; assay type: functional; conditions: time 198 hrs
[31] = target: Phosphatidylinositol 4,5-bisphosphate 3-kinase catalytic subunit beta isoform (Homo sapiens, UniProt P42338); test: Inhibition of human PI3Kbeta by ADP-Glo kinase assay
Phosphatidylinositol 4,5-bisphosphate 3-kinase catalytic subunit beta isoform, sequence (P42338 whole entry, canonical isoform): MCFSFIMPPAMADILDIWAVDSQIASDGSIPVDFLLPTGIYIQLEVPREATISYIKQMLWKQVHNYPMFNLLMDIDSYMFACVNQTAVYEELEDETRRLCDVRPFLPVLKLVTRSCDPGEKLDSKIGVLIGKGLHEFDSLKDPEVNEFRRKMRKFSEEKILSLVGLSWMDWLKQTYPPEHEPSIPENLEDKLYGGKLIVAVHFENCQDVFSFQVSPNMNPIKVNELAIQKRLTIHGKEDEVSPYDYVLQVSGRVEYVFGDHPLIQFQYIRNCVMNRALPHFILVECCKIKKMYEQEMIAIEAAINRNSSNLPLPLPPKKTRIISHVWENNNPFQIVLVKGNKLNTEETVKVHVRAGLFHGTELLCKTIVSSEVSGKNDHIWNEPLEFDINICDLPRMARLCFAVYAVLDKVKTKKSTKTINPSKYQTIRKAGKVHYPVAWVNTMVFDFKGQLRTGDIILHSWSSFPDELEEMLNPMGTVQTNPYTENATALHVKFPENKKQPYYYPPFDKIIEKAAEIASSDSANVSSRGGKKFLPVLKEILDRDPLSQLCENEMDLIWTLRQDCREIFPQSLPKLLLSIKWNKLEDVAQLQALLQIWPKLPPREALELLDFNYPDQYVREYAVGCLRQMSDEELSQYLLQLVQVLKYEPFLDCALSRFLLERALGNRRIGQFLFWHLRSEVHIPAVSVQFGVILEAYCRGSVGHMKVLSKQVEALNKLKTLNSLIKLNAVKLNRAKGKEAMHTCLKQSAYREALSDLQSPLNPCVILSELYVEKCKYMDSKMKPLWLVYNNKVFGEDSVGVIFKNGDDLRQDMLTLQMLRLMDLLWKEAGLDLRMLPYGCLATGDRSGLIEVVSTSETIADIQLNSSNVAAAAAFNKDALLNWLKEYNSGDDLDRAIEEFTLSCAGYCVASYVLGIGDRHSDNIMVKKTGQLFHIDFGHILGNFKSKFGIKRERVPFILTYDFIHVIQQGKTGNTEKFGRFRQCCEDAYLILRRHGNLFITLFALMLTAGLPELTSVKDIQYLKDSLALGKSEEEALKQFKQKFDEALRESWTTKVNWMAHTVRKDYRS

Phosphatidylinositol 3-kinase catalytic subunit type 3, sequence (Q8NEB9 whole entry): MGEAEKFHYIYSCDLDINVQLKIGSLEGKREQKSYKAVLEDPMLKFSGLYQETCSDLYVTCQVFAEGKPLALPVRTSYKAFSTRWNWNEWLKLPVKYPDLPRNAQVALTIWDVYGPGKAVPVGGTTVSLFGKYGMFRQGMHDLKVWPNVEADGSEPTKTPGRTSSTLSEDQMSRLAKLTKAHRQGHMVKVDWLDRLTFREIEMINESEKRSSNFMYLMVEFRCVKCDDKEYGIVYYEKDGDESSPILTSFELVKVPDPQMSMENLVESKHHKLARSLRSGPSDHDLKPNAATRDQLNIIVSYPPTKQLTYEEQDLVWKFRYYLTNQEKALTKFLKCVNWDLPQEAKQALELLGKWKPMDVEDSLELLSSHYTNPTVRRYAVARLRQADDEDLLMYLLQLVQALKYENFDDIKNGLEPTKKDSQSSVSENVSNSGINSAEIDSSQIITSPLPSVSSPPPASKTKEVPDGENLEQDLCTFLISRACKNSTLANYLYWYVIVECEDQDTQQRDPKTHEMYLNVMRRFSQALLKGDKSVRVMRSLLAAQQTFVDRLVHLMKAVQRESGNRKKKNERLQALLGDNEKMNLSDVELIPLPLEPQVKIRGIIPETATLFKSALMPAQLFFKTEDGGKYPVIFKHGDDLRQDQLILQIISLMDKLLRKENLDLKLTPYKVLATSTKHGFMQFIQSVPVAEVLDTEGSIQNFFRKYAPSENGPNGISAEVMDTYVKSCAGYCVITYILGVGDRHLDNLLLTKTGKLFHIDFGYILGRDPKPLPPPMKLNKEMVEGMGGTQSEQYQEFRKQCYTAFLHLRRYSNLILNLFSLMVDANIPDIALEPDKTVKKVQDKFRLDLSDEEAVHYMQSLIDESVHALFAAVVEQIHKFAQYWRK

CNC(=O)c1cncc(-c2cnc(Cl)c(NS(=O)(=O)c3ccccc3)c2)c1
Cmax [1]: 4340 ng/mL | AUC(0-t) [2]: 19300 ng·h/mL | IC50 [3]: 681 nM | Ratio IC50 [4]: 100 | Ratio IC50 [5]: 400 | Cmax [6]: 5010 ng/mL | EC50 [7]: 30.3 nM | Tmax [8]: 0.83 h | CL/F [9]: 65 mL/min/kg | Ratio IC50 [10]: 400 | Cmax [11]: 1540 ng/mL | Activity [12]: Dose dependent effect | Ratio IC50 [13]: 100 | Cmax [14]: 718 ng/mL | MRT last [15]: 3.1 h | AUC(0-t) [16]: 2160 ng·h/mL | IC50 [17]: 104 nM | EC50 [18]: 10.2 nM | EC50 [19]: 23.6 nM | Ratio EC50 [20]: 24 | clearance [21]: 51.7 mL/min/kg | Activity [22]: 100% | Vz [23]: 20.2 L/kg | Tmax [24]: 1.2 min | Activity [25]: inactive | EC50 [26]: 28 nM | EC50 [27]: 248 nM | half-life [28]: 2.9 h | Vz [29]: 2.2 L/kg | Activity [30]: 100% | IC50 [31]: 392 nM
